Results published in US10662229B2, “Spider venom peptides and methods of use for modulating sodium channels” (priority 2016, dated 2020).
Where a SMILES comes first, the peptide text is derived from it. Bridges are numbered along the chain shown (N, C = ends).

How the values were obtained:
Type in all cases: cell-based
hNav1.1 = molecular target: T1, hNav1.1 (Homo sapiens, UniProt P35498); test: FLIPR membrane potential assay, hNav1.1; settings: for Selectivity for Nav1.7, Nav subtype 1.1: membrane potential assay
T1 construct: host or cells: HEK293
Method: (§1) HEK293 cells stably expressing hNav1.1, hNav1.2, hNav1.3, hNav1.4, hNav1.5, hNav1.6, hNav1.7 and […] (SB Drug Discovery, Glasgow, UK) were cultured in minimum essential media (MEM) containing 10% v/v FBS supplemented with L-glutamine (2 mM) and selection antibiotics G-418 (0.5 mg/mL), blasticidin (2-4 μg/mL) and zeocin (0.5 mg/mL) as recommended by the manufacturer. CHO cells stably expressing hNav1.8 in a tetracycline-inducible system (Chantest, OH, USA) were cultured in Ham's F-12 containing 10% v/v FBS and selection antibiotics as recommended by the manufacturer. To induce hNav1.8 expression, cells were cultured in the presence of tetracycline (1 μg/mL) for 24 h at 27° C. Cells were grown in a humidified 5% CO2 incubator at 37° C., grown to 70-80% confluence, and passaged every 3-4 days using TrypLE Express (Invitrogen).
(§2) Cells were plated 48 h before the assay on 384-well black walled imaging plates at a density of 10,000 to 15,000 cells per well and were loaded with red membrane potential dye for 30 min at 37° C. (Molecular Devices, CA, USA). One vial of bulk red membrane potential dye was reconstituted to a 10× stock solution with PSS and stored at −20° C. and diluted to 1× solution with PSS on the day of the assay. […] Changes in membrane potential were assessed using the FLIPR^TETRA (excitation 515 to 545 nm, emission 565 to 625 nm) every second for 300 s after adding agonists.

hNav1.2 = molecular target: T2, hNav1.2 (Homo sapiens, UniProt Q99250); test: FLIPR membrane potential assay, hNav1.2; settings: for Selectivity for Nav1.7, Nav subtype 1.2: membrane potential assay
T2 construct: host or cells: HEK293
Method: as §1, §2

hNav1.3 = molecular target: T3, hNav1.3 (Homo sapiens, UniProt Q9NY46); test: FLIPR membrane potential assay, hNav1.3; settings: for Selectivity for Nav1.7, Nav subtype 1.3: membrane potential assay
T3 construct: host or cells: HEK293
Method: as §1, §2

hNav1.4 = molecular target: T4, hNav1.4 (Homo sapiens, UniProt P35499); test: FLIPR membrane potential assay, hNav1.4; settings: for Selectivity for Nav1.7, Nav subtype 1.4: membrane potential assay
T4 construct: host or cells: HEK293
Method: as §1, §2

hNav1.5 = molecular target: T5, hNav1.5 (Homo sapiens, UniProt Q14524); test: FLIPR membrane potential assay, hNav1.5; settings: for Selectivity for Nav1.7, Nav subtype 1.5: membrane potential assay
T5 construct: host or cells: HEK293
Method: as §1, §2

hNav1.6 = molecular target: T6, hNav1.6 (Homo sapiens, UniProt Q9UQD0); test: FLIPR membrane potential assay, hNav1.6; settings: for Selectivity for Nav1.7, Nav subtype 1.6: membrane potential assay
T6 construct: host or cells: HEK293
Method: as §1, §2

hNav1.7 = molecular target: T7, hNav1.7 (Homo sapiens, UniProt Q15858); test: FLIPR membrane potential assay, hNav1.7; settings: for Selectivity for Nav1.7, Nav subtype 1.7: membrane potential assay, reference subtype
T7 construct: host or cells: HEK293
Method: as §1, §2

hNav1.8 = molecular target: T8, hNav1.8 (Homo sapiens, UniProt Q9Y5Y9); test: FLIPR membrane potential assay, hNav1.8; settings: for Selectivity for Nav1.7, Nav subtype 1.8: membrane potential assay
T8 construct: host or cells: HEK293
Method: as §1, §2

T4 sequence (P35499 whole entry): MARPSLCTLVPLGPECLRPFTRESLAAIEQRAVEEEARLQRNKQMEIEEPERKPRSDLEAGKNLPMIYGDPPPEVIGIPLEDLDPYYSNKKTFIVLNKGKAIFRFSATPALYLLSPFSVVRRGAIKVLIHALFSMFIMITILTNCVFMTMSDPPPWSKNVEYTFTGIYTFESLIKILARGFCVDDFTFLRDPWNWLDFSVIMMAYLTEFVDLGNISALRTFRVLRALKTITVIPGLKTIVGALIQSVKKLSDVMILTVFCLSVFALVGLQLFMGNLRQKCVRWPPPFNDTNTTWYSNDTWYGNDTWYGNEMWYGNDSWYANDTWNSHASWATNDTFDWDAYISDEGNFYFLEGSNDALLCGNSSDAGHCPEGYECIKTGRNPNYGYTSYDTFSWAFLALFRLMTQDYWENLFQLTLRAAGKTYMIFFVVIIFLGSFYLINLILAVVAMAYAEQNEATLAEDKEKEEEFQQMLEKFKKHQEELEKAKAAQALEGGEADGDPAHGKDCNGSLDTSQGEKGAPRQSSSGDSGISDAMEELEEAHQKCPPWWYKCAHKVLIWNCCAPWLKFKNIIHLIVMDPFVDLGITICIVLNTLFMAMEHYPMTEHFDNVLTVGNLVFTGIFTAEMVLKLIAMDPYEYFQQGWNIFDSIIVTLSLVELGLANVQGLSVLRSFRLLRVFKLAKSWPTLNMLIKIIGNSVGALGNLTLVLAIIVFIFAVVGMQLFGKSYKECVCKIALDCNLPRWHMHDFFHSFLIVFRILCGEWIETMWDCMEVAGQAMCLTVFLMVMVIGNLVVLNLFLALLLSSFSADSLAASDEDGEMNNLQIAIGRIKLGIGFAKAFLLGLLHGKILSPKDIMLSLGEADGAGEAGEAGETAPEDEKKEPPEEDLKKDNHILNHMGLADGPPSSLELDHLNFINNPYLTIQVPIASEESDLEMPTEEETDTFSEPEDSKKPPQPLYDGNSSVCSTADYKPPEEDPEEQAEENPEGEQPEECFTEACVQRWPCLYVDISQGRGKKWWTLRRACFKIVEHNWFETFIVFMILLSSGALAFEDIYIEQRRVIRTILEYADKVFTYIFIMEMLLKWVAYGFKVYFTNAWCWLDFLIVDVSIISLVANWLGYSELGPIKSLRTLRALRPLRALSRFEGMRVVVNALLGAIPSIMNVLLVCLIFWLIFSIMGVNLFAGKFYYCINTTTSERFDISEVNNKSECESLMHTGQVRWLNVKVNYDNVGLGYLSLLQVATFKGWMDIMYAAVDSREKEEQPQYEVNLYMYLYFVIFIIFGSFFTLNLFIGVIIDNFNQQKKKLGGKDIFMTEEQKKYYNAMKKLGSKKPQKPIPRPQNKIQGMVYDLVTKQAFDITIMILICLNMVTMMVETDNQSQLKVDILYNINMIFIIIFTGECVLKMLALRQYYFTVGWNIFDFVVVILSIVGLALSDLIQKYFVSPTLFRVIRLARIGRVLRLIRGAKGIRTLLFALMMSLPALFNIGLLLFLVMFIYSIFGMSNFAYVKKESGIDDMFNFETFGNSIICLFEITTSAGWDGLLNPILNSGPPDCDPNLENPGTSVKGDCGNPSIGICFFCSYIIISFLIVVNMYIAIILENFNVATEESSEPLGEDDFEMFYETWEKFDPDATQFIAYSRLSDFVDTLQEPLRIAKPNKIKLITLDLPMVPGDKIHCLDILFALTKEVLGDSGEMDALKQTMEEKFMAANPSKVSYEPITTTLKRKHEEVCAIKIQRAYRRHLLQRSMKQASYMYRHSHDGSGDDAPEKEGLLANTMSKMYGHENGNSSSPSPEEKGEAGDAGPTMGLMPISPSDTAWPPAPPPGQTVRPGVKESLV
T8 sequence (Q9Y5Y9 whole entry): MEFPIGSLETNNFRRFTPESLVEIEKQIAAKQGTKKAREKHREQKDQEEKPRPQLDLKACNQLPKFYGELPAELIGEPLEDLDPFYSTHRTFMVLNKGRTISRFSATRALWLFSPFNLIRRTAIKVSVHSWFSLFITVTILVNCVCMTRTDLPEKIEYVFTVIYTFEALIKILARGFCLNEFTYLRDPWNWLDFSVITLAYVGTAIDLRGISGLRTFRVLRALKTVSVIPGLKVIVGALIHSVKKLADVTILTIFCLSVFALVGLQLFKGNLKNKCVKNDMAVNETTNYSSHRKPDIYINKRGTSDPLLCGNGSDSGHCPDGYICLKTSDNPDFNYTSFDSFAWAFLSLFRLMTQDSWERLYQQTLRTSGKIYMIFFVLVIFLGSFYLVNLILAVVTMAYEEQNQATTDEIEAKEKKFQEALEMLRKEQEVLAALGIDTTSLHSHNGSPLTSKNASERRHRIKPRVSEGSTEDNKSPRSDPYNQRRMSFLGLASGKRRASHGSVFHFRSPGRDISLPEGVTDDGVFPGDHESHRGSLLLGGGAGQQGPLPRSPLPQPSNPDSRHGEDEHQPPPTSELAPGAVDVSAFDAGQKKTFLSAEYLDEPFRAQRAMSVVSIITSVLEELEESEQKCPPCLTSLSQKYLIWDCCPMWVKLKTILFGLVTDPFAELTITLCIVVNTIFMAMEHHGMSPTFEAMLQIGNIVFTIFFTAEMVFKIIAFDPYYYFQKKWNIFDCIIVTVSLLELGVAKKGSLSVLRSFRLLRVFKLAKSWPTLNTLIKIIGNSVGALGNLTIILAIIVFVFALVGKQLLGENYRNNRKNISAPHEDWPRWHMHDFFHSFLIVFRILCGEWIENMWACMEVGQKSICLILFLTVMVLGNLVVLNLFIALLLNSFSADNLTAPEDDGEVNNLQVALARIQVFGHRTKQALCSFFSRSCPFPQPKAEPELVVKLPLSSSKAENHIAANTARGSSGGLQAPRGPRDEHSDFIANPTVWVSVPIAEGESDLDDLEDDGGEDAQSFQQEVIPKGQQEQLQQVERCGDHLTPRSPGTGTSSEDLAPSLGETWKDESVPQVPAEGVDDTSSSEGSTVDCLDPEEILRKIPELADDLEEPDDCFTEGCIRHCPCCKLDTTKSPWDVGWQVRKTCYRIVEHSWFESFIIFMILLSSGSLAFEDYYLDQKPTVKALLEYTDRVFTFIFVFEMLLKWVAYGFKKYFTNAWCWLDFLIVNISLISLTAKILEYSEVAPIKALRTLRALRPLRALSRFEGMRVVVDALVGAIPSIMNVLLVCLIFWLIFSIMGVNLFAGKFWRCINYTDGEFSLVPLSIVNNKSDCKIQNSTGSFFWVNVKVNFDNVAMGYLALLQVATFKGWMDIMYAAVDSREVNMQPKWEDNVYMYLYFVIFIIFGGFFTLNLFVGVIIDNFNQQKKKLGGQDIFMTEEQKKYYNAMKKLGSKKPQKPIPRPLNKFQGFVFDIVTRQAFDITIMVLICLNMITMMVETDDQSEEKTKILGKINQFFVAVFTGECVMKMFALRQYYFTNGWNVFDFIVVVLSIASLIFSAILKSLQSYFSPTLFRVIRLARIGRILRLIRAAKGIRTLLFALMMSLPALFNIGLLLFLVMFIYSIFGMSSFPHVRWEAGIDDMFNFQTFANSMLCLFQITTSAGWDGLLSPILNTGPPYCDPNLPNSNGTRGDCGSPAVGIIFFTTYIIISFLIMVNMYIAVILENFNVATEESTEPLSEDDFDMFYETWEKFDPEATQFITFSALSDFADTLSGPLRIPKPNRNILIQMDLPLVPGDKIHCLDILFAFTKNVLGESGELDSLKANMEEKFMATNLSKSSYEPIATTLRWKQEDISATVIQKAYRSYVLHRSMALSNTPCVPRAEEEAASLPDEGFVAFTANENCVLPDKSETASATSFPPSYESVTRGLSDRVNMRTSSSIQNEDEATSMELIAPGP

| SMILES | IC50 (hNav1.1) | Selectivity for Nav1.7, Nav subtype 1.1 (hNav1.1) | IC50 (hNav1.2) | Selectivity for Nav1.7, Nav subtype 1.2 (hNav1.2) | IC50 (hNav1.3) | Selectivity for Nav1.7, Nav subtype 1.3 (hNav1.3) | IC50 (hNav1.4) | Selectivity for Nav1.7, Nav subtype 1.4 (hNav1.4) | IC50 (hNav1.5) | Selectivity for Nav1.7, Nav subtype 1.5 (hNav1.5) | IC50 (hNav1.6) | Selectivity for Nav1.7, Nav subtype 1.6 (hNav1.6) | IC50 (hNav1.7) | Selectivity for Nav1.7, Nav subtype 1.7 (hNav1.7) | IC50 (hNav1.8) | Selectivity for Nav1.7, Nav subtype 1.8 (hNav1.8) |
| --- | --- | --- | --- | --- | --- | --- | --- | --- | --- | --- | --- | --- | --- | --- | --- | --- |
| CSCC[C@@H]1NC(=O)[C@H](Cc2ccc(O)cc2)NC(=O)[C@H](CCCNC(=N)N)NC(=O)[C@@H](NC(=O)[C@@H](N)CC(=O)O)CSSC[C@@H]2NC(=O)[C@@H]3CSSC[C@@H](C(=O)N[C@@H](C)C(=O)N[C@@H](Cc4c[nH]c5ccccc45)C(=O)N[C@@H](CC(=O)O)C(=O)N[C@@H](Cc4ccccc4)C(=O)N[C@H](C(=O)N[C@@H](Cc4ccccc4)C(=O)N[C@H](C(=O)O)[C@@H](C)O)[C@@H](C)O)NC(=O)[C@H](Cc4ccc(O)cc4)NC(=O)[C@H](CCCCN)NC(=O)[C@H](CCSC)NC(=O)[C@H](CCCCN)NC(=O)[C@H](CCCNC(=N)N)NC(=O)[C@H](CCCCN)NC(=O)[C@H](CSSC[C@H](NC(=O)CNC(=O)CNC(=O)[C@H](Cc4ccccc4)NC1=O)C(=O)N[C@@H](CCC(=O)O)C(=O)N[C@@H](CCCCN)C(=O)N[C@@H](CC(=O)O)C(=O)N[C@@H](CCC(=O)O)C(=O)N[C@@H](CC(=O)O)C(=O)N3)NC(=O)CNC(=O)[C@H](CC(C)C)NC(=O)[C@H](Cc1c[nH]cn1)NC(=O)[C@H](CCCCN)NC2=O [[D8G]Pnc1a] (H-DCRYMFGGCEKDEDCCKHLGCKRKMKYCAWDFTFT-OH; disulfide 2-16, 9-21, 15-28) | 2000 nM | 35 | 301 nM | 6 | 658 nM | 13 | 2000 nM | 48 | > 30000 nM | >616 | 2000 nM | 46 | 49 nM | 1 | > 30000 nM | >616 |
| CSCC[C@@H]1NC(=O)[C@H](Cc2ccc(O)cc2)NC(=O)[C@H](CCCNC(=N)N)NC(=O)[C@@H](NC(=O)[C@@H](N)CC(=O)O)CSSC[C@@H]2NC(=O)[C@@H]3CSSC[C@@H](C(=O)N[C@@H](C)C(=O)N[C@@H](Cc4c[nH]c5ccccc45)C(=O)N[C@@H](CC(=O)O)C(=O)N[C@@H](Cc4ccccc4)C(=O)N[C@H](C(=O)N[C@@H](Cc4ccccc4)C(=O)N[C@H](C(=O)O)[C@@H](C)O)[C@@H](C)O)NC(=O)[C@H](Cc4ccc(O)cc4)NC(=O)[C@H](CCCCN)NC(=O)[C@H](CCSC)NC(=O)[C@H](CCCCN)NC(=O)[C@H](CCCNC(=N)N)NC(=O)[C@H](CCCCN)NC(=O)[C@H](CSSC[C@H](NC(=O)[C@H](CCCCN)NC(=O)CNC(=O)[C@H](Cc4ccccc4)NC1=O)C(=O)N[C@@H](CCC(=O)O)C(=O)N[C@@H](CCCCN)C(=O)N[C@@H](CC(=O)O)C(=O)N[C@@H](CCC(=O)O)C(=O)N[C@@H](CC(=O)O)C(=O)N3)NC(=O)CNC(=O)[C@H](CC(C)C)NC(=O)[C@H](Cc1c[nH]cn1)NC(=O)[C@H](CCCCN)NC2=O [[D8K]Pnc1a] (H-DCRYMFGKCEKDEDCCKHLGCKRKMKYCAWDFTFT-OH; disulfide 2-16, 9-21, 15-28) | 241 nM | 19 | 40 nM | 3 | 2000 nM | 159 | 663 nM | 52 | > 30000 nM | >2000 | > 30000 nM | >2000 | 13 nM | 1 | > 30000 nM | >2000 |
